These results are taken from patent US20240415819A1, “MACROCYCLIC COMPOUNDS AS PROTEASOME SUBUNIT BETA TYPE-5 INHIBITORS” (Lead Discovery Center GmbH, priority 2021, published 2024).

Where two headings read alike, the source gives them in different places. Where only a bound is given, the exact number is not on record here.

For series [1], the system named is B-cells isolated from PBMC's. Nature of the series: Chymotrypsin-like ProteasomeGlo assay in B-cells isolated from PBMCs. Type of series: cell-based, human. The source says:
PBMC's will be isolated from human blood followed by B-cell isolation from the PBMC's using the Miltenyi Isolation Kit. • 2. This experiment will use the Chymotrypsin-like ProteasomeGlo read-out to generate IC50's following compound treatment. • 3. Dilute all compounds 1:100 for the assay. • 4. […] Repeat the DMSO transfer with lane 12. • 5. Lane 12 should not be seeded with any cells. Only medium! • 6. For all steps, make sure the samples and reagents remain cool! • 7. While dealing with the buffy coats, be careful to not let any exposed skin to be in direct contact with the blood. […] PBMC isolation followed by B-cell isolation using the Miltenyi Kit • Day 2: B-cell plating, ECHO transfer and ProteasomeGlo assay For the initial steps and to make processing the buffy coats easier, separately process the buffy coats. • a. Cut the tube attached to the buffy coats carefully using a clean, sterile and fresh scalpel. • b. Transfer the blood into 2 individual 50 ml falcons. • c. Add an equal volume of DPBS to the blood in the falcons. • d. Add 20 ml of lymphocyte separating medium to two 50 ml falcons. • e. Carefully pour 15-20 ml of the blood+DPBS mix from step c. onto the lymphocyte separating medium from step d. • f. Centrifuge the falcons with the lymphocyte separating medium+blood mix at 800×g for 15 minutes using a swing-out rotor. • g. Following centrifugation, carefully remove the falcons from the centrifuge. • h. The following layers will be observed: • i. Aspirate the plasma layer off carefully without disturbing the different layers. • j. Remove the cell pellet using a pipette into two fresh 50 ml falcons. • k. Fill the falcons with the cells up to 50 ml with DPBS. • l. Centrifuge the falcons at 250×g for 10 minutes using a swing-out rotor (Brake-off). • m. Aspirate the complete DPBS off the cells without disturbing the cell pellet at the bottom of the falcon. • n. Re-suspend the cell pellet in 10 ml of 1×RBC lysis buffer. • o. Incubate the falcons at room temperature in the dark for 10 minutes. • p. After RBC lysis, centrifuge the tubes at 250×g for 10 minutes using a swing-out rotor (brake-off). • (*Note: If the cell pellet is still red or light red, repeat steps n. to p.!) • q. Re-suspend the cell pellet in DPBS up to 50 ml in the falcon. • r. Centrifuge the falcons at 250×g for 10 minutes using a swing-out rotor (Brake-off). • s. Aspirate the DPBS off the cells without disturbing the cell pellet at the bottom of the falcon. • t. Repeat the wash step as described in steps q. to s. 2× times more (total number of washes is 3×). • u. Aspirate the DPBS completely off the cell pellet after the last wash without disturbing the cell pellet. • v. Re-suspend the cell pellet in 20 ml of PBMC cell medium. • w. […] Re-suspend the pellet in volume of the B-cell isolation buffer calculated as follows: • k. Mix well using a 1 ml pipette and incubate the mix on ice for 20 mins. • l. In the meantime, equilibrate one LS Column as follows: • 1. Insert one LS Column into one slot of the separator as depicted in the pictures above. • 2. Place a 50 ml falcon at the bottom of the LS column to collect the wash flow-through. • 3. Add 3 ml of the B-cell isolation buffer into the column. • 4. Allow the buffer to flow-through making sure that the entire volume passes the column and that the column reservoir is empty before the addition of the cells. • 5. Remove the falcon with the flow-through and discard. • m. Place a fresh 50 ml falcon under the LS Column to collect the untouched B-cells isolated from the PBMCs. • n. Apply the entire volume of the cell+antibody+microbeads mix to the LS Column. • o. Collect the flow-through from each application of the mix into the same 50 ml falcon under the LS Column. • p. Once the complete volume of the cell+antibody+microbead mix has been passed through, proceed to washing of the column. • q. Add 3 ml of the B-cell isolation buffer to the LS Column and allow the buffer to flow-through. […]

The subject of the next series is PBMC. Nature of the series: PBMC IL 17 stim. (Table 4, method not given). Type of series: cell-based.
The conditions of series [2]: from Cc1ccc(OCCC2CCCNC2)cc1CNC(=O)[C@H](CCc1ccccc1)NC(=O)[C@H](CC(=O)O)NC(=O)OCc1ccccc1; amide bond; HATU; DMF; 252.0 mM; 25.0 °C; 2 steps.
The subject of a further series is Karpas cells. Nature of the series: Glo assay of Karpas cells (Table 3; ProteasomeGlo plating scheme). To be noted: read-out: Pglo Karpas. Type of series: cell-based. From the text: Inhibition is indicated as IC50 [nM] (“-”=not measured). […] • Chymotrypsin-Like Cell-Based Proteasome-GloTM Assay (Promega; […]) • Cell culture 384-well plates (Greiner BioOne; 781080) • Dispensing cassette, MultiDrop Standard tube dispensing cassette (Thermo Scientific; 24072670) • DPBS (Pan BioTech; P04-36500) • Cell culture 384-well plates (Greiner BioOne; 781080) • CPD source plate: diamond-shape plate (Labcyte; LP-0200) • Intermediate plate (Labcyte; P-05525) [table] • a. Remove the plates with cells from the incubator. • b. Take all the plates including the compound plate, intermediate plate and Staurosporine plate to the ECHO. • c. Click on “Open” in the ECHO software and select the protocol “QLI5_25ul_30 uM-Grenier”. • d. Follow the on-screen prompts and instructions once you click “Start” to insert the compound plate, intermediate plate and destination plates. • e. Change the final number of destination plates on the program. • f. Follow the on-screen prompts and instructions once you click “Start” to load the Staurosporine and destination plates. • g. Once all the compounds, DMSO and Staurosporine have been transferred, place the destination plates in a wet tissue box. • h. Place the destination plates back into the incubator and incubate at 37° C., 5% CO2 for 105 minutes. • i. Re-seal all the compound+Stauro diamond and intermediate plates and store in the dark. Chymotrypsin like ProteasomeGlo Assay • 1. Thaw the components of the ProteasomeGlo assay at room temperature including the ProteasomeGlo Buffer, the lyophilized Luciferin Detection Reagent and the Suc-LLVY-Glo Substrate. • 2. Reconstitute the Luciferin Detection Reagent in the amber coloured bottle by adding 50 ml of the ProteasomeGlo Buffer. • 3. Vortex the Suc-LLVY-Glo Substrate briefly to reconstitute the Substrate well. • 4. Spin down the Substrate and add 250 μl of the Substrate to the reconstituted Luciferin Detection Reagent from step 2. • 5. Briefly vortex the amber bottle with the mix to prepare a homogenous solution. • 6. Place the mix prepared in step 5 to sit at room temperature for 60 minutes. • 7. After 60 minutes, pipette 25 μl of the mix from step 5 into all wells with the cells. • 8. Shake the plates for 2-5 minutes to ensure the complete mixing of the ProteasomeGlo reagent with the cells. • 9. Leave the plates in the dark for 10-15 minutes. • 10. Measure the luminescence read-out using the Viktor and the protocol “Luminescence_384Well_0.2 sec”. (Note: The Protoeasome-GloTM Reagent (combined Proteasome-GloTM Substrate, Proteasome-GloTM Buffer and Luciferin Detection Reagent) can be stored at 4° C. or -20° C. for 1 month with minimal loss of activity.)

Where [3] appears, read: Homo sapiens, B-cells isolated from PBMC's, read-out: Pglo B-Cell.

As for `Cc1ccc2cc1CNC(=O)[C@H](CCc1ccccc1)NC(=O)[C@@H](NC(=O)c1nc3ccccc3[nH]1)CC(=O)N1CCCC(CCO2)C1` (stereo partly drawn) [Compound 31, N-((9S,12S)-5^4-methyl-8,11,14-trioxo-9-phenethyl-4-oxa-7,10-diaza-1(3,1)-piperidina-5(1,3)-benzenacyclotetradecaphane-12-yl)-1H-benzo[d] imidazole-2-carboxamide], the IC50 in series [1] (setting [3]) is less than 100 nM.

Turning to `Cc1ccc2cc1CNC(=O)[C@H](CCc1ccccc1)NC(=O)[C@@H](NC1COC1)CC(=O)N1CCCC(CCO2)C1` (stereo partly drawn) [Compound 35, (9S,12S)-5^4-methyl-12-(oxetan-3-ylamino)-9-phenethyl-4-oxa-7,10-diaza-1(3,1)-piperidina-5(1,3)-benzenacyclotetradecaphane-8,11,14-trione], in series [1] (setting [3]), the IC50 was less than 100 nM.

In the case of `Cc1ccc2cc1CNC(=O)[C@H](CCc1ccccc1)NC(=O)[C@@H](NC(=O)C(C)(C)C)CC(=O)N1CCCC(CCO2)C1` (stereo partly drawn) [Compound 27, N-((9S,12S)-5^4-methyl-8,11,14-trioxo-9-phenethyl-4-oxa-7,10-diaza-1(3,1)-piperidina-5(1,3)-benzenacyclotetradecaphane-12-yl)pivalamide], the IC50 (in series [1] (setting [3]); in the series with PBMC) was less than 100 nM throughout.

Consider `Cc1ccc2cc1CNC(=O)[C@H](CCc1ccccc1)NC(=O)[C@@H](NC(=O)Cc1ccccc1)CC(=O)N1CCCC(CCO2)C1` (stereo partly drawn) [Compound 29, N-((9S,12S)-5^4-methyl-8,11,14-trioxo-9-phenethyl-4-oxa-7,10-diaza-1(3,1)-piperidina-5(1,3)-benzenacyclotetradecaphane-12-yl)-2-phenylacetamide], for which the IC50 (in series [1] (setting [3]); with PBMC) was less than 100 nM in each case.

Regarding `Cc1ccc2cc1CNC(=O)[C@H](CCc1ccccc1)NC(=O)[C@@H](NC(=O)OCc1ccccc1)CC(=O)N1CCCC(CCO2)C1` (stereo partly drawn) [Compound 7, benzyl ((9S,12S)-5^4-methyl-8,11,14-trioxo-9-phenethyl-4-oxa-7,10-diaza-1(3,1)-piperidina-5(1,3)-benzenacyclotetradecaphane-12-yl)carbamate], the ring closure, yield of all isomers in series [2] came to 68.9%.

With `Cc1ccc2cc1CNC(=O)[C@H](CCc1ccccc1)NC(=O)[C@@H](Nc1ncccn1)CC(=O)N1CCCC(CCO2)C1` (stereo partly drawn) [Compound 34, (9S,12S)-5^4-methyl-9-phenethyl-12-(pyrimidin-2-ylamino)-4-oxa-7,10-diaza-1(3,1)], in series [1] (Homo sapiens, read-out: Pglo B-Cell [nM]), the IC50 was less than 100 nM.

Turning to `CC(=O)N[C@H]1CC(=O)N2CCCC(CCOc3ccc(C)c(c3)CNC(=O)[C@H](CCc3ccccc3)NC1=O)C2` (stereo partly drawn) [Compound 33, N-((9S,12S)-5^4-methyl-8,11,14-trioxo-9-phenethyl-4-oxa-7,10-diaza-1(3,1)-piperidina-5(1,3)-benzenacyclotetradecaphane-12-yl)acetamide], the IC50 in series [1] (setting [3]) was less than 100 nM.

Take `Cc1ccc2cc1CNC(=O)[C@H](CCc1ccccc1)NC(=O)[C@@H](NC(=O)CC(C)(C)C)CC(=O)N1CCCC(CCO2)C1` (stereo partly drawn) [Compound 28, 3,3-dimethyl-N-((9S,12S)-5^4-methyl-8,11,14-trioxo-9-phenethyl-4-oxa-7,10-diaza-1(3,1)-piperidina-5(1,3)-benzenacyclotetradecaphane-12-yl)butanamide]: in the series with Karpas cells, the IC50 was less than 100 nM.

As for `Cc1ccc2cc1CNC(=O)[C@H](CCc1ccccc1)NC(=O)[C@@H](NC(=O)Cc1ccccc1C)CC(=O)N1CCCC(CCO2)C1` (stereo partly drawn) [Compound 373, N-((9S,12S)-5^4-methyl-8,11,14-trioxo-9-phenethyl-4-oxa-7,10-diaza-1(3,1)-piperidina-5(1,3)-benzenacyclotetradecaphane-12-yl)-2-(o-tolyl)acetamide], the IC50 (with Karpas cells; in series [1] (setting [3])) was less than 100 nM in each case.

In the case of `Cc1ccc2cc1CNC(=O)[C@H](CCc1ccccc1)NC(=O)[C@@H](NC(=O)c1ncccn1)CC(=O)N1CCCC(CCO2)C1` (stereo partly drawn) [Compound 32, N-((9S,12S)-5^4-methyl-8,11,14-trioxo-9-phenethyl-4-oxa-7,10-diaza-1(3,1)-piperidina-5(1,3)-benzenacyclotetradecaphane-12-yl)pyrimidine-2-carboxamide], in series [1] (setting [3]), the IC50 was less than 100 nM.

With `Cc1ccc2cc1CNC(=O)C(CCc1ccccc1)NC(=O)C(NC(=O)CCc1ccccc1)CC(=O)N1CCCC(CCO2)C1` [Compound 30, N-((9S,12S)-5^4-methyl-8,11,14-trioxo-9-phenethyl-4-oxa-7,10-diaza-1(3,1)-piperidina-5(1,3)-benzenacyclotetradecaphane-12-yl)-3-phenylpropanamide], the IC50 in series [1] (B-cells isolated from PBMC's, read-out: Pglo B-Cell) was less than 100 nM.
